# Reference: PubChem BioAssay (NCI)
#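 Following 48 hours of exposure in 96-well plates, responses at five concentrations were used to interpolate endpoints linearly. GI50 = concentration required for 50% inhibition of growth. TGI: total growth inhibition.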
# Legend:
# Experiment in all cases: growth of human tumour cells (NCI), 48 h
# [1] = test system: SN12C renal
# [2] = test system: UACC-62 melanoma
# [3] = test system: MALME-3M melanoma
# [4] = test system: SF-268 CNS
# [5] = test system: NCI-H226 lung
# [6] = test system: CAKI-1 renal
# [7] = test system: ACHN renal
# [8] = test system: T-47D breast
# [9] = test system: LOX IMVI melanoma
# [10] = test system: DU-145 prostate
# [11] = test system: NCI/ADR-RES ovarian
# [12] = test system: MDA-MB-435
# [13] = test system: SF-539 CNS
# [14] = test system: KM12 colon
# [15] = test system: OVCAR-4 ovarian
# [16] = test system: K-562 leukemia
# [17] = test system: NCI-H522 lung
# [18] = test system: PC-3 prostate
# [19] = test system: SK-MEL-28 melanoma
# [20] = test system: A549 NSCLC
# [21] = test system: 786-0 renal
# [22] = test system: HCT-15 colon
# [23] = test system: OVCAR-8 ovarian
# [24] = test system: SF-295 CNS
# [25] = test system: HOP-92 NSCLC
# [26] = test system: SK-OV-3 ovarian
# [27] = test system: IGROV1 ovarian
# [28] = test system: RXF 393 renal
# [29] = test system: HCC-2998 colon
# [30] = test system: OVCAR-5 ovarian
# [31] = test system: NCI-H460 lung
# [32] = test system: A498 renal
# [33] = test system: HCT-116 colon
# [34] = test system: OVCAR-3 ovarian
# [35] = test system: SW-620 colon
# [36] = test system: CCRF-CEM leukemia
# [37] = test system: UO-31 renal
# [38] = test system: EKVX NSCLC
# [39] = test system: HOP-62 NSCLC
# [40] = test system: SK-MEL-5 melanoma
# [41] = test system: U251 CNS
# [42] = test system: MCF7 breast
# [43] = test system: NCI-H23 lung
# [44] = test system: COLO 205 colon
# [45] = test system: BT-549 breast
# [46] = test system: HL-60(TB) leukemia
# [47] = test system: SNB-75 CNS
# [48] = test system: UACC-257 melanoma
# [49] = test system: M14 melanoma
# [50] = test system: HT29 colon
# [51] = test system: TK-10 renal
# [52] = test system: RPMI-8226 leukemia
# [53] = test system: SK-MEL-2 melanoma
# [54] = test system: HS 578T breast
# [55] = test system: SNB-19 CNS
# [56] = test system: MDA-MB-231 breast
structure (smiles),measurement,setting,value
O=C(Cn1c(=O)c(-c2ccccc2)nc2ccccc21)Nc1ccc(F)cc1,GI50,[1],77.5 µM
same,TGI,[1],> 100 µM
same,GI50,[2],67.5 µM
same,TGI,[2],> 100 µM
same,GI50,[3],43 µM
same,TGI,[3],> 100 µM
same,GI50,[4],> 100 µM
same,TGI,[4],> 100 µM
same,GI50,[5],> 100 µM
same,TGI,[5],> 100 µM
same,GI50,[6],> 100 µM
same,TGI,[6],> 100 µM
same,GI50,[7],42.6 µM
same,TGI,[7],> 100 µM
same,GI50,[8],50.8 µM
same,TGI,[8],> 100 µM
same,GI50,[9],> 100 µM
same,TGI,[9],> 100 µM
same,GI50,[10],43.4 µM
same,TGI,[10],> 100 µM
same,GI50,[11],> 100 µM
same,TGI,[11],> 100 µM
same,GI50,[12],> 100 µM
same,TGI,[12],> 100 µM
same,GI50,[13],4.03 µM
same,TGI,[13],28.7 µM
same,GI50,[14],> 100 µM
same,TGI,[14],> 100 µM
same,GI50,[15],47.3 µM
same,TGI,[15],> 100 µM
same,GI50,[16],35.8 µM
same,TGI,[16],> 100 µM
same,GI50,[17],65.1 µM
same,TGI,[17],> 100 µM
same,GI50,[18],39.9 µM
same,TGI,[18],> 100 µM
same,GI50,[19],> 100 µM
same,TGI,[19],> 100 µM
same,GI50,[20],94.8 µM
same,TGI,[20],> 100 µM
same,GI50,[21],75.2 µM
same,TGI,[21],> 100 µM
same,GI50,[22],> 100 µM
same,TGI,[22],> 100 µM
same,GI50,[23],39.6 µM
same,TGI,[23],> 100 µM
same,GI50,[24],> 100 µM
same,TGI,[24],> 100 µM
same,GI50,[25],22.5 µM
same,TGI,[25],86.2 µM
same,GI50,[26],64.8 µM
same,TGI,[26],> 100 µM
same,GI50,[27],89.6 µM
same,TGI,[27],> 100 µM
same,GI50,[28],35.5 µM
same,TGI,[28],> 100 µM
same,GI50,[29],> 100 µM
same,TGI,[29],> 100 µM
same,GI50,[30],> 100 µM
same,TGI,[30],> 100 µM
same,GI50,[31],> 100 µM
same,TGI,[31],> 100 µM
same,GI50,[32],13.7 µM
same,TGI,[32],97.9 µM
same,GI50,[33],24 µM
same,TGI,[33],> 100 µM
same,GI50,[34],> 100 µM
same,TGI,[34],> 100 µM
same,GI50,[35],67 µM
same,TGI,[35],> 100 µM
same,GI50,[36],6.46 µM
same,TGI,[36],> 100 µM
same,GI50,[37],> 100 µM
same,TGI,[37],> 100 µM
same,GI50,[38],87.1 µM
same,TGI,[38],> 100 µM
same,GI50,[39],49.8 µM
same,TGI,[39],> 100 µM
same,GI50,[40],7.38 µM
same,TGI,[40],> 100 µM
same,GI50,[41],48 µM
same,TGI,[41],> 100 µM
same,GI50,[42],98.7 µM
same,TGI,[42],> 100 µM
same,GI50,[43],> 100 µM
same,TGI,[43],> 100 µM
same,GI50,[44],> 100 µM
same,TGI,[44],> 100 µM
same,GI50,[45],36.4 µM
same,TGI,[45],> 100 µM
same,GI50,[46],14.1 µM
same,TGI,[46],48 µM
same,GI50,[47],38.8 µM
same,TGI,[47],> 100 µM
same,GI50,[48],> 100 µM
same,TGI,[48],> 100 µM
same,GI50,[49],> 100 µM
same,TGI,[49],> 100 µM
same,GI50,[50],> 100 µM
same,TGI,[50],> 100 µM
same,GI50,[51],85 µM
same,TGI,[51],> 100 µM
same,GI50,[52],37.4 µM
same,TGI,[52],> 100 µM
same,GI50,[53],60.6 µM
same,TGI,[53],> 100 µM
same,GI50,[54],29.9 µM
same,TGI,[54],88.8 µM
same,GI50,[55],41.8 µM
same,TGI,[55],> 100 µM
same,GI50,[56],99.7 µM
same,TGI,[56],> 100 µM
